The source of these data is patent US4321267A, “1-Substituted-4 (1H)-pyridinone hydrazones active against Giardia lamblia and Trichomonas vaginalis” (priority 1980, dated 1982).

Data set [1] deals with Giardia lamblia. Briefly: In vitro anti-Giardia lamblia activity (multiwell culture, viable count by hemacytometer, 24 h). The format is cell-based. The note with it: Giardia duodenalis, 50% inhibition of growth, 37° C., about 16-24 hours, anaerobic, read-out: Anti-G. lamblia ED50. As to the method: (§1) About 1.0-2.0 ml of a nutrient medium, for example, the modified Diamond's (TPS) medium at pH 7.05, together with about 10% by volume of heat-inactivated serum and about 1% by volume of an antibiotic-antimycoticmixture, is placed in each well of a multi-well plate. To this mixture, an aliquot of a suspension of G. lamblia cells containing about 10^6 organism is added. Subsequently, each well is inoculated with a known concentration of one of the pyridinone hydrazones, for example, 1-[(4-chlorophenyl)-4(1H)-pyridinone]-2-[(4-chlorophenyl)methylene]-hydrazone. The multiwell plate containing the individual culture samples is incubated under anaerobic conditions at about 37° C. for about 16-24 hours. The number of viable cells remaining in each well are then counted, such as with a hemocytometer. The percentage of survival is determined by comparison to controls incubated with DMSO (dimethylsulfoxide) and the effective concentration (in parts per million) for 50% inhibition of growth (ED50) is determined. It is established that the lower the ED50 the higher the activity of the 1-substituted-4-(1H)-pyridinone hydrazone tested.
(§2) In each well of a multiwell plate is placed 1.4 ml of Diamond's TPS medium (See Table II) at pH 7.05, 10% by volume of heat-inactivated fetal bovine serium, and 1% by volume of an antibiotic-antimycotic solution (see Table III). A suspension of Giardia lamblia is centrifuged at 2,500 xg for 6 minutes. The pelleted cells are resuspended in a small volume of Diamond's medium, the cells are counted and each well inoculated with approximately 10^6 organisms. A stock solution of 1-[(4-chlorophenyl)-4(1H)-pyridinone]-2-[(4-methylthiophenyl)-methylene]hydrazone in dimethylsulfoxide is made at a concentration of 150 μg/ml. The wells are then inoculated with various concentrations of the drug. The plates are incubated for 24 hours at 37° C. in an anaerobic Gas Pak jar. After 24 hours of incubation, each well is mixed and counted for viable organisms using a hemacytometer. The percentage of survival is determined by comparing the treated wells to controls treated with dimethylsulfoxide.

Data set [2] deals with Trichomonas vaginalis. Briefly: In vitro anti-Trichomonas vaginalis activity (method of Example 1). Type of data set: cell-based, T. vaginalis 30001. As to conditions: for IC50: Trichomonas vaginalis, 37° C., 24 hours, read-out: Anti-T. vaginalis ED50; for activity against T. vaginalis (in words): method of Example 1. Here is the method: as §1, §2
Employing the method of Example 1, centrifuged cells of T. vaginalis 30001 are incubated with 1-[(4-chlorophenyl)-4(1H)-pyridinone]-2-[(4-methylthiophenyl)methylene]hydrazone at 37° C. for 24 hours.

In data set [3] the test system is Giardia lamblia. The note with it: humans; cited from earlier work.
The conditions of data set [4]: humans; cited from earlier work.
For data set [5] the following is noted: in animals; cited from earlier work.
Data set [6] concerns Trichomonas vaginalis. The note with it: humans; cited from earlier work.

SMILES strings stand for the structures. Values after ≈ are worked out from the molar mass of the structure shown.

For `Clc1ccc(C=NN=c2ccn(-c3ccc(Cl)cc3)cc2)cc1` [(1), 1-[(4-chlorophenyl)-4(1H)-pyridinone]-2-[(4-chlorophenyl)methylene]hydrazone], in the data set with Giardia lamblia [1], the IC50 came out at 1.45 µg/mL (≈ 4.24 µM). Besides, in the data set with Trichomonas vaginalis [2], the IC50 was 2.63 µg/mL (≈ 7.68 µM) and the “activity against T. vaginalis (in words)” value is given as “active against T. vaginalis”.

As for `N#Cc1ccc(C=NN=c2ccn(-c3ccc(Cl)cc3)cc2)cc1` [(2), 1-[(4-chlorophenyl)-4(1H)-pyridinone]-2-[(4-cyanophenyl)methylene]hydrazone], the IC50 with Giardia lamblia [1] was found to be 2.25 µg/mL (≈ 6.76 µM). Also, in the data set with Trichomonas vaginalis [2], the IC50 came out at 3.3 µg/mL (≈ 9.92 µM) and the “activity against T. vaginalis (in words)” value is given as “active against T. vaginalis”.

As for `CSc1ccc(C=NN=c2ccn(-c3ccc(Cl)cc3)cc2)cc1` [(3), 1-[(4-chlorophenyl)-4(1H)-pyridinone]-2-[(4-methylthiophenyl)methylene]hydrazone], the IC50 in the data set with Giardia lamblia [1] was 1.1 µg/mL (≈ 3.11 µM). Besides, in the data set with Trichomonas vaginalis [2], the IC50 amounted to 2.88 µg/mL (≈ 8.14 µM) and the “activity against T. vaginalis (in words)” value is listed as “effective anti-T. vaginalis agent”.

On to `Clc1ccc(-n2ccc(=NN=Cc3ccc(Cl)c(Cl)c3)cc2)cc1` [(4), 1-[(4-chlorophenyl)-4(1H)-pyridinone]-2-[(3,4-dichlorophenyl)methylene]hydrazone], for which the IC50 in the data set with Giardia lamblia [1] was determined as 1.5 µg/mL (≈ 3.98 µM); in the data set on Trichomonas vaginalis [2], 3 µg/mL (≈ 7.96 µM).

With `FC(F)(F)c1ccc(C=NN=c2ccn(-c3ccc(Cl)cc3)cc2)cc1` [(5), 1-[(4-chlorophenyl)-4(1H)-pyridinone]-2-[(4-trifluoromethylphenyl)methylene]hydrazone], the IC50 amounted to 1.42 µg/mL (≈ 3.78 µM) with Giardia lamblia [1] and 3.25 µg/mL (≈ 8.65 µM) with Trichomonas vaginalis [2].

Turning to `Clc1ccc(-n2ccc(=NN=Cc3ccc(Br)cc3)cc2)cc1` [(6), 1-[(4-chlorophenyl)-4(1H)-pyridinone]-2-[(4-bromophenyl)methylene]hydrazone], the IC50 in the data set with Giardia lamblia [1] worked out at 1.25 µg/mL (≈ 3.23 µM); in the data set with Trichomonas vaginalis [2], 3.63 µg/mL (≈ 9.39 µM).

As to `Clc1ccc(-n2ccc(=NN=Cc3ccc(Cl)cc3Cl)cc2)cc1` [(7)], the IC50 in the data set on Giardia lamblia [1] is 1.2 µg/mL (≈ 3.19 µM); with Trichomonas vaginalis [2], 1.75 µg/mL (≈ 4.65 µM).

As to `Fc1ccc(C=NN=c2ccn(-c3ccc(Cl)cc3)cc2)cc1` [(8), 1-[(4-chlorophenyl)-4(1H)-pyridinone]-2-[(4-fluorophenyl)methylene]hydrazone], the IC50 came out at 2.25 µg/mL (≈ 6.91 µM) in the data set on Giardia lamblia [1] and 4 µg/mL (≈ 12.3 µM) in the data set on Trichomonas vaginalis [2].

With `CCN(CC)CCCC(C)Nc1c2ccc(Cl)cc2nc2ccc(OC)cc12` (stereo not drawn) [Atabrine], the “treatment of giardiasis infection” value in the data set on Giardia lamblia [3] is listed as “successfully treated”.

In the case of `O=C1OCCN1/N=C/c1ccc([N+](=O)[O-])o1` [furazolidone], the “treatment of giardiasis infection” value in the data set on Giardia lamblia [3] is on record as “successfully treated”. In addition, in data set [4], the adverse side effects entry was “adverse side effects”.

On to `Cc1ncc([N+](=O)[O-])n1CCO` [metronidazole], for which, in data set [5], the carcinogenicity result is given as “carcinogenic in animals”. Also, the IC50 was 6.2 µg/mL (≈ 36.2 µM) in the data set with Giardia lamblia [1] and below 1 µg/mL in the data set on Trichomonas vaginalis [2]. The “treatment of giardiasis infection” value in the data set on Giardia lamblia [3] is on record as “successfully treated”. For the same molecule, the therapy of trichomoniasis result in the data set with Trichomonas vaginalis [6] was “Successful therapy of trichomoniasis”.
